Data published in ChEMBL document CHEMBL1124377, “Potent and prolonged acting cyclic lactam analogues of alpha-melanotropin: design based on molecular dynamics” (J Med Chem, 1989).

Columns and labels:
[1] = test system: Melanocyte-stimulating hormone receptor (Rana pipiens); test: […] potency against Rana pipiens using frog skin bioassay; effect did not continue after the removal of the compound
[2] = test system: Melanocyte-stimulating hormone receptor (Anolis carolinensis); test: […] potency against Anolis carolinensis using lizard skin bioassay; effect did not continue after the removal of the compound

Relative potency [1]: 1 | Relative potency [2]: 20
SMILES: CCCC[C@H](NC(C)=O)C(=O)N[C@H]1CC(=O)NCCC[C@@H](C(N)=O)NC(=O)[C@H](Cc2c[nH]c3ccccc23)NC(=O)[C@H](CCCN=C(N)N)NC(=O)[C@@H](Cc2ccccc2)NC(=O)[C@H](Cc2cnc[nH]2)NC1=O
